These results are taken from patent US7855076B2, “Use of discoidin domain receptor 1 (DDR1) and agents that affect the DDR1/collagen pathway” (The United States of America as represented by the …, priority 2002, dated 2010).

One experiment concerns DDR1. In words: DDR1 autophosphorylation and MAP kinase phosphorylation in iDC and mDC. The note with it: DCs, TNF-α stimulation. The format is cell-based, human. The method, then: To measure the kinetics of DDR1autophosphorylation, 1×10^7 iDC or TNF-α-induced mDCs were plated on dishes, serum-starved in RPMI 1640 containing 1% FCS for 10 hours, and subsequently activated with agonistic anti-DDR1 IgM (5 μg/ml) or control IgM (5 ug/ml) for varous times. Cell lysates were prepared, DDR1 was immunoprecipitated using anti-DDR1 Ab (C-20), and tyrosine-phosphorylation of DDR1 was analyzed by Western blotting using a mouse monoclonal anti-phosphotyrosine IgG and a sheep anti-mouse IgG coupled with horseradish peroxidase. Peroxidase activity was visualized by the Enhanced Chemiluminescence Detection System (Amersham).
Sequence of DDR1 (Q08345 19-417 limits assumed): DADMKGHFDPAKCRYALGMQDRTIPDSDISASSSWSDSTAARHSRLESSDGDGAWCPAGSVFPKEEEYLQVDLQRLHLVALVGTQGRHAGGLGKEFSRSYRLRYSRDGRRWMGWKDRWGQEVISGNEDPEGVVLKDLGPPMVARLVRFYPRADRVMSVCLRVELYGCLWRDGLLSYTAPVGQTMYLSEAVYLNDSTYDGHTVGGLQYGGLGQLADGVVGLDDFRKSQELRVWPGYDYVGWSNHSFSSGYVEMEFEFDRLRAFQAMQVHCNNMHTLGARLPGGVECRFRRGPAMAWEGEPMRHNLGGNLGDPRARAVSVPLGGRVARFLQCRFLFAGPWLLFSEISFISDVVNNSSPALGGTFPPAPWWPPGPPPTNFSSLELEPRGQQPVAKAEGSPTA
To detect phosphorylation of MAP kinases, ATF2, or MKK3/6, iDC and mDC were activated with agonistic 513 anti-DDR1 IgM or control IgM for varous times. Since TNF-α is known to activate p38 MAP kinase (Ono and Han, Cell. Signal. 12:1-13, 2000), cells were washed 6 times with PBS before activation in order to minimize the effect of TNF-α. Twenty μl of cell lysates were directly mixed with 20 μl of sample buffer and then analyzed.

The next experiment deals with T1, DDR1b (Homo sapiens, UniProt Q08345).
T1 construct: one of the clones, clone 11B, contained the full-length human DDR1b cDNA; expressed in transfected cells; host or cells: THP-1 human monocytic leukemia cells, retroviral vector pLXSN, G418-selected clones
T1 sequence (Q08345 19-913): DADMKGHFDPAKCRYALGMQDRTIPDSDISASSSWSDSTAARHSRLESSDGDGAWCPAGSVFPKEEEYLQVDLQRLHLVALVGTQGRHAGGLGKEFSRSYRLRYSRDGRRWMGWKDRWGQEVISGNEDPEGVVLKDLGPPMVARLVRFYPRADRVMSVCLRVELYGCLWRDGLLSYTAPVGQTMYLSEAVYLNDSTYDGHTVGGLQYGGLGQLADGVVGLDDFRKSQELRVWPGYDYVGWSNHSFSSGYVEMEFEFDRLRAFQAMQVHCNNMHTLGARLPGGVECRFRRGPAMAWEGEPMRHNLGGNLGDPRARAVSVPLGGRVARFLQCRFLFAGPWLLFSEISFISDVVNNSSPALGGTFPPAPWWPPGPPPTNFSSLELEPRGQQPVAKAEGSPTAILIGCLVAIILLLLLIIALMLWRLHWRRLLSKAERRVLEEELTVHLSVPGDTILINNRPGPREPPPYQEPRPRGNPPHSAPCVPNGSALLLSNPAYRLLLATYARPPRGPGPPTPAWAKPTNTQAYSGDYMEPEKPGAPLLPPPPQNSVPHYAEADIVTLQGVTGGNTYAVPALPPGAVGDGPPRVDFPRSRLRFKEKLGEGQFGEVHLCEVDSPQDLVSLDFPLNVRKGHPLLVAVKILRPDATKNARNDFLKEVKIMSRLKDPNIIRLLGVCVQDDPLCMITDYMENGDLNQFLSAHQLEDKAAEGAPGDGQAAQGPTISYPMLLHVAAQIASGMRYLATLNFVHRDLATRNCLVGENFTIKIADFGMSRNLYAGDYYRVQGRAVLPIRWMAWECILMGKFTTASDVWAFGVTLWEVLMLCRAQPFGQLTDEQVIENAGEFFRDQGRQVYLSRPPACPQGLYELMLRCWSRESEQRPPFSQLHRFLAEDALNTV
In words: Autophosphorylation of DDR1b overexpressed in THP-1 cells. Type of experiment: cell-based. The method, then:
(§1) Using the retrovirus-infected cell lines, the effect of collagen type I on the phosphorylation of DDR1 proteins was tested. Two million cells in 3 ml complete medium were added onto collagen type I-coated plastic plates and incubated at 37° C. for various times. Cell lysates were prepared and immunoprecipitation was performed with the anti-DDR1 antibody. One-fourth of the immunoprecipitated samples was subjected to SDS-PAGE and Western blotting. The membranes were blotted with anti-pTyr and anti-DDR1 antibody. Low levels of constitutive autophosphorylation of both receptors were detected. The levels of autophosphorylation increased slightly at 15 minutes and peaked at 90 minutes after activation of the cells on collagen type I-coated plastic plates. The peak level was maintained for up to 240 minutes for DDR1a, which is consistent with the previously reported delayed kinetics of […] autophosphorylation in other cell types (Vogel FASEB J, (Suppl.), S77-S82, 1999). In contrast, autophosphorylation of DDR1b decreased after 90 minutes of collagen-activation.
(§2) Parental, mock, DDR1a- or DDR1b-overexpressing THP-1 cells were plated at 5×10^6/ml on uncoated tissue culture plates and stimulated with PMA (10 nM) for 24 hours, and then starved in RMPI 1640 without FCS for 10 hours. Subsequently cells were washed three times with PBS, and then incubated in the presence of 50 μg/ml collagen type I for various times.
(§3) Ten million cells were lysed on ice for 20 minutes in a buffer containing 50 mM NaCl, 20 mM Tris-HCl, 50 mM sodium fluoride, 30 mM Na4P2O7, 5 mM EGTA, 3 mM sodium orthovanadate, 1% Triton X-100, 1 mg/ml leupeptin, 1 mM PMSF, 1 mg/ml aprotinin, 1 mg/ml pepstatinA and 100 μM sodium orthovanadate treated with H2O2. […]
(§4) Eluted proteins were analyzed on 8% polyacrylamide gels by SDS-PAGE and transferred electrophoretically to nitrocellulose membranes at 150 mA for 1 hour by a semi-dry system. […] To detect phosphorylated or nonphosphorylated p38 MAP kinase or ATF-2, 20 μl of cell lysates were directly mixed with 20 μl of sample buffer and then analyzed.

The next experiment has as its system THP-1 cells. Put plainly: Proliferation of PMA-treated THP-1 cells. The format is cell-based, human. The settings on record: DDR1b-overexpressing cells on collagen-coated plates, 10 nM PMA, 24 hour and 48 hour, compared with parental, mock or DDR1a cells. As for the experimental part: One hundred μl of cell suspension (5×10^6/ml) were plated in 96-well tissue culture plates either uncoated or collagen-coated, and incubated at 37° C. in the presence of 10 nM phorbol 12-myristate 13 acetate (PMA) for 24 or 48 hours (FIG. 4A). Data are shown as the mean ±SD of 10 wells. *p<0.01 by Bonferroni/Dun with One Way Factorial ANOVA. Twenty μl of each cell lysate were loaded and Western blotting was performed. The expression levels of DDR1 in DDR1a- or DDR1b-overexpressing THP-1 cells before and after treatment with PMA plus collagen are shown in FIG. 4C. […]
One hundred μl of cell suspension (5×10^6/ml) were plated in 96-well tissue culture plates either collagen-coated or non-coated, and incubated at 37° C. in 5% CO2 humidified atmosphere in the presence of 10 nM PMA for 48 hours. Cell proliferation was measured by using the CellTiter 96 Aqueous Non-Radioactive Cell Proliferation Assay Kit (Promega, Madison, Wis.) according to the manufacture's protocol. Trypan-blue staining was also used to measure the number of live cells in each culture.

A further experiment has as its target T2, DDR1a (Homo sapiens, UniProt Q08345).
T2 construct: The full-length human DDR1a or DDR1b cDNA was ligated into the EcoRI/BamHI site of the retroviral vector pLXSN; expressed in transfected cells; host or cells: THP-1 human monocytic leukemia cells, retroviral vector pLXSN, G418-selected clones
In words: Autophosphorylation of DDR1a overexpressed in THP-1 cells. The format is cell-based. The method, then: as §1, §2, §3, §4

The mark [1] stands for this setting: PMA-treated cells, 50 μg/ml collagen type I.
Setting [2] is: collagen type I-coated plates, cells not PMA-treated.

T2 sequence (Q08345 19-876 isoform Q08345-2 limits assumed): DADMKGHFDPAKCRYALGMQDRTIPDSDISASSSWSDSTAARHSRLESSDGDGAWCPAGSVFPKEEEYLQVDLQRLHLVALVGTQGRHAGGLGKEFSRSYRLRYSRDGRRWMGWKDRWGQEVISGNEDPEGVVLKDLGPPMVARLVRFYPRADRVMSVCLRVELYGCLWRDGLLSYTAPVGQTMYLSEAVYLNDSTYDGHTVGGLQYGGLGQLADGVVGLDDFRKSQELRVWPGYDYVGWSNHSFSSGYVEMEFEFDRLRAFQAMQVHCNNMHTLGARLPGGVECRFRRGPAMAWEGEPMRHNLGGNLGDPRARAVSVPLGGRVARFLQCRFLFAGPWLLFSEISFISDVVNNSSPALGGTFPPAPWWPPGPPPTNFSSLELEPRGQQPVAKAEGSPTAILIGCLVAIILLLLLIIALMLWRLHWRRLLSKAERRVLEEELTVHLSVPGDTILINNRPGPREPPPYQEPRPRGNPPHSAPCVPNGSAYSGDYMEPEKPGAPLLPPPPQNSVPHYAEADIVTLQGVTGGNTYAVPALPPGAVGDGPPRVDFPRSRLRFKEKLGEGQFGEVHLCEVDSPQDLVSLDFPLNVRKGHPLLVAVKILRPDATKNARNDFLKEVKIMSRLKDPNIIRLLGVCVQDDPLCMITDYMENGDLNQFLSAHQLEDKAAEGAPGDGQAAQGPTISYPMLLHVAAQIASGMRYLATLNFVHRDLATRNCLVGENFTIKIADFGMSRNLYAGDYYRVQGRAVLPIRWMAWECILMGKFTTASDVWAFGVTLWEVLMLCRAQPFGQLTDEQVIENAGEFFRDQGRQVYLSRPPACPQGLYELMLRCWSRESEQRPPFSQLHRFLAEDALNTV

On to TNF-α, for which the “activation of ERK1, ERK2, JNK, MKK3/6” value in the experiment on DDR1 is “rapidly activated”.
For collagen, at DDR1b (setting [1]), the time autophosphorylation detectable is 30 min. For the same substance, the “time of peak autophosphorylation” value at DDR1b (setting [1]) worked out at 60 min; on DDR1b (setting [2]), 90 min; on DDR1a (setting [1]) it was 4 h; at DDR1a (setting [2]), 1.5 h. The decrease of proliferation result with THP-1 cells is “about 50%”. Besides, the “time autophosphorylation first detected” value at DDR1a (setting [1]) was determined as 90 min.
